Patent US11708359B2, “Monoacylglycerol lipase modulators” (Janssen Pharmaceutica NV, priority 2020, dated 2023)
Like-named read-outs stand apart in the source and are kept apart here.

Biological target: human MGL from HeLa cells (Homo sapiens (Human), UniProt Q99685)
Test: MGL in vitro activity assay ([glycerol-1,3-3H]-oleoyl glycerol cleavage, activated carbon filter)
Format: biochemical
Experimental: The assay consists of combining endogenously expressed MGL from HeLa cells with test compounds, adding[glycerol-1,3-^3H]-oleoyl glycerol, incubating for one hour, and then measuring the amount of cleaved[1,3-^3H]-glycerol that passes through an activated carbon filter. The amount of cleaved, tritiated glycerol passing through the carbon filter is proportional to the activity of the MGL enzyme in a particular well/test condition.
Standard conditions for this assay combine 300 nM [Glycerol-1,3-^3H]-oleoyl glycerol with human MGL from HeLa cells and test compounds for one hour, after which the reaction is filtered through activated carbon and tritium is measured in the flow through. […] MGL is the predominant hydrolase in HeLa cells/cell homogenates.

[1] = 300 nM [Glycerol-1,3-3H]-oleoyl glycerol, endogenously expressed MGL from HeLa cells, one hour incubation, read-out: MGL IC50

Sequence of human MGL from HeLa cells (Q99685 whole entry): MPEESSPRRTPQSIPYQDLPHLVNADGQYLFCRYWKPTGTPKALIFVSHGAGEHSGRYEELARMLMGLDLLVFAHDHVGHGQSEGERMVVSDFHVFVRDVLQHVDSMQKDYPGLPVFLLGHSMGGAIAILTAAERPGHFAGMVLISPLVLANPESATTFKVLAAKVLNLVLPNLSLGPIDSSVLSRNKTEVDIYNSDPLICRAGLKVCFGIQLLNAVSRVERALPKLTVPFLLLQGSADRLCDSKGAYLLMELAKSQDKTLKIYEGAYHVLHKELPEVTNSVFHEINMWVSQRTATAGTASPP

For CC(C)(C)c1cccc([C@H]2[C@@H]3CN(C(=O)[C@H]4C[C@]5(COC(=O)N5)C4)C[C@@H]32)n1 [Example 116, (2s,4S)-2-((1R,5S,6R)-6-(6-(tert-Butyl)pyridin-2-yl)-3-azabicyclo[3.1.0]hexane-3-carbonyl)-7-oxa-5-azaspiro[3.4]octan-6-one], the IC50 [1] was 5.2 nM.
With O=C1N[C@]2(CO1)C[C@H](C(=O)N1CC3CC3(c3cccc(Oc4ccccc4)c3)C1)C2 (mixture of isomers) [Example 29, (rac)-(2s,4s)-2-(1-(3-Phenoxyphenyl)-3-azabicyclo[3.1.0]hexane-3-carbonyl)-7-oxa-5-azaspiro[3.4]octan-6-one] the IC50 [1] was 1.5 nM.
With CCc1cc([C@H]2[C@@H]3CN(C(=O)[C@H]4C[C@]5(COC(=O)N5)C4)C[C@@H]32)ccc1F [Example 111, (2s,4S)-2-((1R,5S,6S)-6-(3-Ethyl-4-fluorophenyl)-3-azabicyclo[3.1.0]hexane-3-carbonyl)-7-oxa-5-azaspiro[3.4]octan-6-one] the IC50 [1] was 11 nM.
Cc1ccc([C@@]23CCN(C(=O)[C@H]4C[C@]5(COC(=O)N5)C4)C[C@@H]2C3)cc1F (stereo in doubt) [Example 48, (2s,4*5)-2-((1*R,6*5)-6-(3-Fluoro-4-methylphenyl)-3-azabicyclo[4.1.0]heptane-3-carbonyl)-7-oxa-5-azaspiro[3.4]octan-6-one] showed an IC50 [1] of 1.3 nM.
Work on Cc1ccc([C@H]2[C@@H]3CN(C(=O)[C@H]4C[C@]5(COC(=O)N5)C4)C[C@@]32C)cc1C(F)(F)F (racemic) [Example 112, (rac)-(2s,4*S)-2-((1*R,5*S,6*R)-1-Methyl-6-(4-methyl-3-(trifluoromethyl)phenyl)-3-azabicyclo[3.1.0]hexane-3-carbonyl)-7-oxa-5-azaspiro[3.4]octan-6-one] yielded an IC50 [1] of 6 nM.
Work on CC(C)c1cccc([C@]23C[C@H]2CN(C(=O)[C@H]2C[C@]4(COC(=O)N4)C2)C3)c1 (stereo in doubt) [Example 8, (2s,4*R)-2-((1*S,5*R)-1-(3-Isopropylphenyl)-3-azabicyclo[3.1.0]hexane-3-carbonyl)-7-oxa-5-azaspiro[3.4]octan-6-one] yielded an IC50 [1] of 11 nM.
CC(C)(CO)c1cccc([C@H]2[C@@H]3CN(C(=O)[C@H]4C[C@]5(COC(=O)N5)C4)C[C@@H]32)c1 [Example 104, (2s,4S)-2-((1R,5S,6S)-6-(3-(1-Hydroxy-2-methylpropan-2-yl)phenyl)-3-azabicyclo[3.1.0]hexane-3-carbonyl)-7-oxa-5-azaspiro[3.4]octan-6-one] gave an IC50 [1] of 19 nM.
Work on CC(C)(C)c1ccc([C@]23C[C@H]2CN(C(=O)[C@H]2C[C@]4(CCC(=O)N4)C2)C3)cc1 (stereo in doubt) [Example 15, (2r,4*R)-2-((1*S,5*R)-1-(4-(tert-Butyl)phenyl)-3-azabicyclo[3.1.0]hexane-3-carbonyl)-5-azaspiro[3.4]octan-6-one] yielded an IC50 [1] of 12 nM.
CC(C)c1ccc([C@H]2[C@@H]3CN(C(=O)[C@H]4C[C@]5(COC(=O)N5)C4)C[C@@H]32)cc1 [Example 90, (2s,4S)-2-((1R,5S,6S)-6-(4-Isopropylphenyl)-3-azabicyclo[3.1.0]hexane-3-carbonyl)-7-oxa-5-azaspiro[3.4]octan-6-one] gave an IC50 [1] of 2.8 nM.
O=C1N[C@]2(CO1)C[C@H](C(=O)N1CCC3(c4ccccc4)C(Cl)C3C1)C2 (mixture of isomers) [Example 123, (rac)-(2s,4s)-2-(7-Chloro-6-phenyl-3-azabicyclo[4.1.0]heptane-3-carbonyl)-7-oxa-5-azaspiro[3.4]octan-6-one] was tested, and the IC50 [1] was 200 nM.
Cc1cccc(C23CC2CN(C(=O)[C@H]2C[C@]4(COC(=O)N4)C2)C3)c1 (mixture of isomers) [Example 21, (rac)-(2s,4s)-2-(1-(m-Tolyl)-3-azabicyclo[3.1.0]hexane-3-carbonyl)-7-oxa-5-azaspiro[3.4]octan-6-one] was tested, and the IC50 [1] was 14 nM.
Cc1ccccc1C12CC1CN(C(=O)[C@H]1C[C@]3(COC(=O)N3)C1)C2 (mixture of isomers) [Example 20, (rac)-(2s,4s)-2-(1-(o-Tolyl)-3-azabicyclo[3.1.0]hexane-3-carbonyl)-7-oxa-5-azaspiro[3.4]octan-6-one] gave an IC50 [1] of 6.5 nM.
Compound Cc1cccc([C@@]23CCN(C(=O)[C@H]4C[C@]5(COC(=O)N5)C4)C[C@@H]2C3)c1 (stereo in doubt) [Example 45, (2s,4*5)-2-((1*R,6*S)-6-(m-Tolyl)-3-azabicyclo[4.1.0]heptane-3-carbonyl)-7-oxa-5-azaspiro[3.4]octan-6-one] has an IC50 [1] of 32 nM.
C[C@]12CN(C(=O)[C@H]3C[C@]4(COC(=O)N4)C3)C[C@H]1[C@@H]2c1ccc(C2CC2)cc1 (racemic) [Example 108, (rac)-(2s,4*5)-2-((1*R,5*S,6*R)-6-(4-Cyclopropylphenyl)-1-methyl-3-azabicyclo[3.1.0]hexane-3-carbonyl)-7-oxa-5-azaspiro[3.4]octan-6-one] gave an IC50 [1] of 38 nM.
For O=C1CC[C@]2(C[C@H](C(=O)N3CCC4(c5cccc(C6CC6)c5)CC4C3)C2)N1 (mixture of isomers) [Example 65, (rac)-(2r,4s)-2-(6-(3-Cyclopropylphenyl)-3-azabicyclo[4.1.0]heptane-3-carbonyl)-5-azaspiro[3.4]octan-6-one], the IC50 [1] was 4 nM.
CCc1ccc([C@H]2[C@@H]3CN(C(=O)[C@H]4C[C@]5(COC(=O)N5)C4)C[C@@H]32)cc1 [Example 86, (2s,4S)-2-((1R,5S,6S)-6-(4-Ethylphenyl)-3-azabicyclo[3.1.0]hexane-3-carbonyl)-7-oxa-5-azaspiro[3.4]octan-6-one] was tested, and the IC50 [1] was 25 nM.
Cc1ccc([C@H]2[C@@H]3CN(C(=O)[C@H]4C[C@]5(CCC(=O)N5)C4)C[C@@H]32)cc1C [Example 89, (2r,4S)-2-((1R,5S,6S)-6-(3,4-Dimethylphenyl)-3-azabicyclo[3.1.0]hexane-3-carbonyl)-5-azaspiro[3.4]octan-6-one] was tested, and the IC50 [1] was 178 nM.
CC1(c2cccc(C34CC3CN(C(=O)[C@H]3C[C@]5(COC(=O)N5)C3)C4)c2)CC1 (mixture of isomers) [Example 31, (rac)-(2s,4s)-2-(1-(3-(1-Methylcyclopropyl)phenyl)-3-azabicyclo[3.1.0]hexane-3-carbonyl)-7-oxa-5-azaspiro[3.4]octan-6-one] gave an IC50 [1] of 1.1 nM.
Work on Cc1cccc(C23CCN(C(=O)[C@H]4C[C@]5(COC(=O)N5)C4)CC2C3)c1 (mixture of isomers) [Example 43, (rac)-(2s,4s)-2-(6-(m-Tolyl)-3-azabicyclo[4.1.0]heptane-3-carbonyl)-7-oxa-5-azaspiro[3.4]octan-6-one] yielded an IC50 [1] of 8.2 nM.
Work on Cc1ccc([C@H]2[C@@H]3CN(C(=O)[C@H]4C[C@]5(COC(=O)N5)C4)C[C@@]32C)cc1C (racemic) [Example 102, (rac)-(2s,4*5)-2-((1*R,5*S,6*R)-6-(3,4-Dimethylphenyl)-1-methyl-3-azabicyclo[3.1.0]hexane-3-carbonyl)-7-oxa-5-azaspiro[3.4]octan-6-one] yielded an IC50 [1] of 23 nM.
Work on O=C1N[C@]2(CO1)C[C@H](C(=O)N1CC[C@]3(c4ccccc4)C[C@@H]3C1)C2 [Example 41, (2s,4R)-2-((1S,6R)-6-Phenyl-3-azabicyclo[4.1.0]heptane-3-carbonyl)-7-oxa-5-azaspiro[3.4]octan-6-one] yielded an IC50 [1] of 9.6 nM.
In the case of CC1(c2ccc([C@@]34C[C@@H]3CN(C(=O)[C@H]3C[C@]5(CCC(=O)N5)C3)C4)cc2)CC1 (stereo in doubt) [Example 95, (2r,4*S)-2-((1*R,5*5)-1-(4-(1-Methylcyclopropyl)phenyl)-3-azabicyclo[3.1.0]hexane-3-carbonyl)-5-azaspiro[3.4]octan-6-one], the IC50 [1] is reported as 7.5 nM.
With O=C1CCC2(CC(C(=O)N3CC[C@@]4(c5cccc(OC(F)(F)F)c5)C[C@H]4C3)C2)N1 (relative stereo) [Example 119, (2r,4*5)-2-((1*R,6*5)-6-(3-(Trifluoromethoxy)phenyl)-3-azabicyclo[4.1.0]heptane-3-carbonyl)-5-azaspiro[3.4]octan-6-one] the IC50 [1] was 5.2 nM.
O=C1N[C@]2(CO1)C[C@H](C(=O)N1CC3CC3(c3ccc(Oc4ccccc4)cc3)C1)C2 (mixture of isomers) [Example 28, (rac)-(2s,4s)-2-(1-(4-Phenoxyphenyl)-3-azabicyclo[3.1.0]hexane-3-carbonyl)-7-oxa-5-azaspiro[3.4]octan-6-one] was tested, and the IC50 [1] was 1.7 nM.
Cc1ccc(C23CC2CN(C(=O)[C@H]2C[C@]4(COC(=O)N4)C2)C3)cc1C(F)(F)F (mixture of isomers) [Example 25, (rac)-(2s,4s)-2-(1-(4-Methyl-3-(trifluoromethyl)phenyl)-3-azabicyclo[3.1.0]hexane-3-carbonyl)-7-oxa-5-azaspiro[3.4]octan-6-one] was tested, and the IC50 [1] was 3.6 nM.
For CC(C)(C)c1cccc([C@H]2[C@@H]3CN(C(=O)[C@H]4C[C@]5(COC(=O)N5)C4)C[C@@]32C)c1 (stereo in doubt) [Example 99, (2s,4*5)-2-((1*R,5*S,6*R)-6-(3-(tert-Butyl)phenyl)-1-methyl-3-azabicyclo[3.1.0]hexane-3-carbonyl)-7-oxa-5-azaspiro[3.4]octan-6-one], the IC50 [1] was 0.64 nM.
O=C1N[C@]2(CO1)C[C@H](C(=O)N1CC3CC3(c3ccc(OC(F)(F)F)cc3)C1)C2 (mixture of isomers) [Example 22, (rac)-(2s,4s)-2-(1-(4-(Trifluoromethoxy)phenyl)-3-azabicyclo[3.1.0]hexane-3-carbonyl)-7-oxa-5-azaspiro[3.4]octan-6-one] gave an IC50 [1] of 16 nM.
O=C1N[C@]2(CO1)C[C@H](C(=O)N1CCC3(c4cccc(OC(F)(F)F)c4)CC3C1)C2 (mixture of isomers) [Example 49, (rac)-(2s,4s)-2-(6-(3-(Trifluoromethoxy)phenyl)-3-azabicyclo[4.1.0]heptane-3-carbonyl)-7-oxa-5-azaspiro[3.4]octan-6-one] was tested, and the IC50 was 1.6 nM.
Compound CC(C)(C)c1ccc([C@H]2[C@@H]3CN(C(=O)[C@H]4C[C@]5(CCC(=O)N5)C4)C[C@@H]32)cc1 [Example 83, (2r,4S)-2-((1R,5S,6S)-6-(4-(tert-Butyl)phenyl)-3-azabicyclo[3.1.0]hexane-3-carbonyl)-5-azaspiro[3.4]octan-6-one] has an IC50 [1] of 2.9 nM.
